Laboratory results reported in paper PMC10669037, “CRISPR/Cas12a Collateral Cleavage Activity for Sensitive 3′–5′ Exonuclease Assay” (Biosensors, 2023).

Tested on: T1, Exonuclease III (Exo III)
T1 construct: gene xthA; commercial enzyme from New England BioLabs
Assay: hairpin DNA digestion, coupled to Cas12a collateral cleavage of fluorescent reporter
Format: biochemical
Details: acts by metal chelation, not a specific binder; Exo III 5 U/mL, 10 min preincubation, hairpin probe substrate, magnesium acetate buffer pH 7.9, 37 °C; EDTA carried into the Cas12a read-out step

An IC50 of 6.34 mM was found for `O=C(O)CN(CCN(CC(=O)O)CC(=O)O)CC(=O)O` [EDTA] in this work.
